The text below walks through data of US7507792B2, “MDA-7 proteins and methods of use thereof” (The Trustees of Columbia University In The City of New York, priority 1993, dated 2009).

What all share (format): cell-based, human
The subject of test [1] is mda-4. Briefly: mda-4 expression (Northern blotting). The settings on record: H0-1; 24 hours; doses of FIG. 19; phenyl butyrate 24 hours, 4 days or 7 days. The protocol: (§1) The mass excision of the library was performed using ExAssist helper phage as described above. The SOLR strain of Escherichia coli and cDNA phagemids were mixed at 37° C. for 15 min and plated onto LB plates containing ampicillin and IPTG/X-gal. White colonies were chosen at random, isolated and grown in LB medium. Plasmid minireps and restriction enzyme digestions were performed to confirm the presence of inserts. The inserts were isolated and used as robes for Northern blotting analysis (5,25). […] Radiolabeled probes were generated by random oligonucleotide priming (25). Prehybridization, hybridization, posthybridization washes, and autoradiography were performed as described (5,18,25).

Test [2] relates to mda-5. Briefly: mda-5 expression (Northern blotting). The settings on record: H0-1; 24 hours; doses of FIG. 19; phenyl butyrate 24 hours, 4 days or 7 days. The protocol:
as §1

Test [3] deals with mda-6. Briefly: mda-6 expression (Northern blotting). The settings on record: H0-1. The protocol: as §1
Total cytoplasmic RNA was isolated and Northern blotting hybridization was performed as described (Reddy et al., 1991; Su et al., 1991; Jiang et al., 1992). Ten μg of RNA was denatured with glyoxal/DMSO, electrophoresed on 1.0% agarose gels, transferred to nylon membranes and hybridized to a ^32P-labeled p53 probe (Baker et al., 1990). The nylon membrane was stripped and hybridized to a ^32P-labeled mda-6 probe (Jiang and Fisher, 1993) and then after a second stripping the membrane was hybridized to a ^32P-labeled rat GAPDH probe (Fort et al., 1985), as described previously (Reddy et al., 1991; Su et al., 1991; Jiang et al., 1992). Following hybridization, the filters were washed and exposed for autoradiography (Reddy et al., 1991; Su et al., 1991; Jiang et al., 1992). mda-6 and GAPDH gene expression were also determined by reverse transcription-polymerase chain reaction (RT-PCR) as described (Adollahi et al., 1991; Lin et al., 1994; Jiang et al., 1994b). Total cytoplasmic RNA was treated with 0.5 units DNase (Boehringer-Mannheim Biochemicals)/μg RNA in 15% glycerol, 10 mM Tris, pH 7.5, 2.5 mM MgCl2, 0.1 mM EDTA, 80 mM KCl, 1 mM CaCl2 and 1 unit/ml RNasin (Promega) at 30° C. for 10 min. RNA was extracted with phenol-chloroform, precipitated with sodium acetate/ethanol and RNA pellets were resuspended in diethylpyrocarbonate-treated H2O. One μg of total RNA was reverse transcribed with 200 units of murine leukemia virus reverse transcriptase (Bethesda Research Laboratories) in 20 μl containing 1 mM deoxyribonucleotide triphosphates, 4 mM MgCl2, 10 mM Tris, pH 8.3, 50 mM KCl, 0.001% gelatin and 0.2 μg oligo-dT primer. Samples were adjusted to 100 μl with buffer containing 0.2 mM deoxyribonucleotide triphosphates, 2 mM MgCl2, 10 mM Tris, pH 8.3, 50 mM KCl and 0.001% gelatin. Fifty pmol of each primer, 1.5 units Taq DNA polymerase (Perkin-Elmer Cetus) were added and samples were covered with mineral oil, heated at 95° C. for 5 min and subjected to 25 cycles of PCR in a Perkin-Elmer Thermal Cycler using 1 min denaturation at 94° C., 2 min annealing at 55° C. and 3 min polymerization at 72° C. After extraction with chloroform, 20 μl of products were electrophoresed, blotted onto nylon filters and hybridized with an mda-6 or GAPDH specific probe. The mda-6 primers were 5′ to 3′ […] (SEQ ID NO:26) and […] (SEQ ID NO:27)(corresponding to nt 1527 to 1546) (GenBank accession number U09579); and the GAPDH primers were 5′ to 3′ […] (SEQ ID NO:28)and […] (SEQ ID NO:29)(corresponding to nt 1070 to 1053) (Tokunaga et al., 1987).

For test [4], the system named is mda-7. Briefly: mda-7 expression (Northern blotting, RT-PCR). To be noted: for mda-7 expression: H0-1, 24 hours, doses of FIG. 19, phenyl butyrate 24 hours, 4 days or 7 days. The protocol: as §1
The subject of test [5] is mda-8. Briefly: mda-8 expression (Northern blotting). To be noted: H0-1; 24 hours; doses of FIG. 19; phenyl butyrate 24 hours, 4 days or 7 days. The procedure: as §1
Test [6] relates to mda-9. Briefly: mda-9 expression (Northern blotting). The settings on record: H0-1; 24 hours; doses of FIG. 19; phenyl butyrate 24 hours, 4 days or 7 days. The protocol: as §1
The mark [7] stands for this setting: 24 hours, doses of FIG. 19, phenyl butyrate 24 hours, 4 or 7 days.

Starred links: 1 amine or outer side, 2 acyl side, 3 side chain; linkers in the order of their positions; H or OH if unused. Positions of bridges follow the written chain, without caps; N, C: chain ends. Non-standard residues stand in square brackets, D forms with d. Residues, ends and D or L forms follow the SMILES beside them. Chains are numbered I, II in the order given. Actinocin(9to1) = Cc1c2oc3c(C)ccc(C(=O)[*:1])c3nc-2c(C(=O)[*:2])c(N)c1=O; NMeV = CN[C@H](C(=O)O)C(C)C; Sar = CNCC(=O)O

In the case of `COc1cc([C@@H]2c3cc4c(cc3[C@@H](O[C@@H]3O[C@@H]5CO[C@@H](C)O[C@H]5[C@H](O)[C@H]3O)[C@H]3COC(=O)[C@H]23)OCO4)cc(OC)c1O` [VP-16], the mda-4 expression result in test [1] was “No or only a small change in expression”. In test [2], the mda-5 expression entry is “No change in expression”. The mda-6 expression entry in test [3] (setting [7]) is listed as “increased expression”. Besides, the mda-7 expression entry in test [4] is listed as “No induction in mda-7 expression”. For the same molecule, the mda-8 expression entry in test [5] is “No change in expression”. In test [6], the mda-9 expression result is given as “Increased expression”.
As for `Cc1c2oc3c(C)ccc(C(=O)N[C@@H]4C(=O)N[C@H](C(C)C)C(=O)N5CCC[C@H]5C(=O)N(C)CC(=O)N(C)[C@@H](C(C)C)C(=O)O[C@@H]4C)c3nc-2c(C(=O)N[C@@H]2C(=O)N[C@H](C(C)C)C(=O)N3CCC[C@H]3C(=O)N(C)CC(=O)N(C)[C@@H](C(C)C)C(=O)O[C@@H]2C)c(N)c1=O` [actinomycin D] (I: T[dV]P[Sar][NMeV] / II: T[dV]P[Sar][NMeV]; ester I:1-I:C, II:1-II:C; linker I:N-II:N via Actinocin(9to1)), the mda-4 expression entry in test [1] is “No or only a small change in expression”. In test [2], the mda-5 expression entry is “No change in expression”. Besides, the mda-6 expression entry in test [3] (setting [7]) is listed as “increased expression”. In addition, the mda-7 expression entry in test [4] is listed as “No induction in mda-7 expression”. The mda-8 expression entry in test [5] was “Increased expression”. Also, the mda-9 expression result in test [6] is “No change in mda-9 expression”.
`COc1cccc2c1C(=O)c1c(O)c3c(c(O)c1C2=O)C[C@@](O)(C(=O)CO)C[C@@H]3O[C@H]1C[C@H](N)[C@H](O)[C@H](C)O1` [adriamycin, Adriamycin]: in test [1], the mda-4 expression result was “No or only a small change in expression”. Besides, in test [2], the mda-5 expression result was “No change in expression”. In test [3] (setting [7]), the mda-6 expression result was “increased expression”. For the same molecule, in test [4], the mda-7 expression result is on record as “increased mda-7 expression”. Moreover, the mda-8 expression entry in test [5] is given as “Increased expression”.
As for `N.N.[Cl][Pt][Cl]` [cis-platinum], in test [1], the mda-4 expression entry is reported as “increased expression”. Also, the mda-5 expression entry in test [2] is reported as “No change in expression”. In test [3] (setting [7]), the mda-6 expression result is reported as “Decreased expression”. Also, the mda-7 expression entry in test [4] is on record as “No induction in mda-7 expression”. Moreover, the mda-8 expression entry in test [5] is “Increased expression”. Besides, the mda-9 expression result in test [6] is given as “No change in mda-9 expression”.
As to `COS(C)(=O)=O` [methyl methanesulfonate], in test [3] (2 h exposure to 25 μg/ml), the mda-6 expression entry is listed as “Elevated mda-6 expression”.
As for `CCCC(=O)Oc1ccccc1` [phenyl butyrate], the mda-4 expression entry in test [1] is “No or only a small change in expression”. Also, the mda-5 expression entry in test [2] is “No change in expression”. In addition, in test [3] (setting [7]), the mda-6 expression result is listed as “Decreased expression”. In addition, in test [4], the mda-7 expression result is “No induction in mda-7 expression”. In addition, in test [5], the mda-8 expression entry is “No change in expression”. Also, the mda-9 expression result in test [6] is on record as “Increased expression”.
Turning to `CC[C@]1(O)C[C@H]2CN(CCc3c([nH]c4ccccc34)[C@@](C(=O)OC)(c3cc4c(cc3OC)N(C=O)[C@H]3[C@@](O)(C(=O)OC)[C@H](OC(C)=O)[C@]5(CC)C=CCN6CC[C@]43[C@@H]65)C2)C1` [vincristine, Vincristine], the mda-4 expression entry in test [1] is “No or only a small change in expression”. The mda-5 expression result in test [2] was “No change in expression”. Besides, the mda-6 expression result in test [3] (setting [7]) is “No change in mda-6 expression”. In addition, the mda-7 expression result in test [4] was “increased mda-7 expression”. Further, in test [5], the mda-8 expression result is given as “No change in expression”. Moreover, the mda-9 expression entry in test [6] is “No change in mda-9 expression”.
Take IFN-α: the mda-4 expression entry in test [1] is listed as “increased expression”. Moreover, the mda-5 expression result in test [2] is recorded as “increased expression”. In test [3] (setting [7]), the mda-6 expression result was “Decreased expression”. Besides, in test [4], the mda-7 expression result is on record as “No induction in mda-7 expression”. The mda-8 expression entry in test [5] was “No change in expression”. Besides, in test [6], the mda-9 expression result was “Increased expression”.
With TNF-α, in test [1], the mda-4 expression result is on record as “No or only a small change in expression”. The mda-5 expression result in test [2] is on record as “No change in expression”. For the same molecule, the mda-6 expression result in test [3] (setting [7]) is “Decreased expression”. In addition, the mda-7 expression entry in test [4] is recorded as “No induction in mda-7 expression”. For the same molecule, the mda-8 expression entry in test [5] is on record as “No change in expression”. Besides, the mda-9 expression entry in test [6] is “Increased expression”.
phenylacetate: in test [4] (LAN human neuroblastoma cells, 5 days), the “mda-7 expression (RT-PCR)” value is recorded as “induced”.
